Experiment [1] relates to mouse brain homogenate. Briefly: TBARS assay, spontaneous lipid peroxidation in mouse brain homogenate. The note with it: read-out: Inhibition of Spontaneous Lipid Peroxidation in Mice Brain Homogenate, TBARS Assay, IC50. As for the experimental part: (§1) The work was carried out in accordance with the EU Directive 2010/63/EU. Hybrid BDF1 mice (about 6 months old) were sacrificed by decapitation. Each brain was rapidly excised, frozen in liquid nitrogen, and stored at −80°C until use. The brains were thawed and homogenized using a Wisd WiseTis HG-15D homogenizer for 2 min in a buffer (0.01 M PBS, pH 7.4 or 0.1 M Tris-HCl, pH 7.4). Protein concentrations were determined by the Lowry method.
The procedure was performed in accordance with the method of Ohkawa et al. with minor modifications. Briefly, mouse brain homogenate (protein concentration 1 mg/mL) in PBS (0.1 M, pH 7.4) was incubated for 30 min at 37°C with tested conjugates, and the reaction was terminated by addition of 0.4 mL of 17% (w/v) trichloroacetic acid (Sigma-Aldrich). Following centrifugation for 20 min at 1300× g, 0.5 mL of 0.8% (w/v) of TBA (Sigma-Aldrich) was added to 1 mL of supernatant, heated for 30 min at 95°C and then cooled to RT. The optical density of the TBARS, which corresponds to the produced MDA, was measured at 532 nm against a blank using an Agilent Cary 60 UV-Vis spectrophotometer (Agilent, Santa Clara, CA, USA). The MDA concentration was calculated using an extinction coefficient of 1.56 × 10^5 M^−1cm^−1. Trolox and BHT were used as reference antioxidants. Compounds were dissolved in DMSO (Sigma-Aldrich) and tested in a concentration range 0.01–100 μM. All compounds were examined at least in triplicate.

In experiment [2] the test system is mouse brain homogenate. Briefly: Luminol chemiluminescence assay in mouse brain homogenate (TBHP-initiated). The note with it: compound concentration 20 µM; mice brain homogenate. As for the experimental part:
as §1
Luminol-dependent chemiluminescence produced by mouse brain homogenates was measured using a 1250 Luminometer (LKB Wallac, Turku, Finland) according to the assay by Di Meo et al. with minor modifications. The reaction mixture consisted of mouse brain homogenate (protein concentration 0.1 mg/mL) in 0.1 M Tris-HCl (Sigma-Aldrich), pH 7.4, luminol (Sigma-Aldrich) (0.05 mM), TBHP (Sigma-Aldrich) (0.073 M) and tested compounds at a concentration of 20 μM. This was placed in a light-proof luminometer chamber and the background reading was recorded. All measurements were carried out at 37°C. The gain control was set to give a reading of 10 mV using a built-in standard. The free radical content in mouse brain homogenate was evaluated by the change in the light sum (the area under the kinetic curve of luminescence intensity for the entire luminescence time). All compounds were examined at least in triplicate. The effects of tested compounds were measured as the percentage decrease in the light sum relative to the control (a sample with no compound added).

Results on 1 compound are retold here after PMC7763995 (Molecules, 2020).

The structures appear in SMILES notation.

By IC50 is commonly meant the midpoint of a concentration-inhibition curve.

Take `CC(C)(C)c1cc(C=NCCNc2c3c(nc4ccccc24)CCCCC3)cc(C(C)(C)C)c1O` [Compound 7c, 2,6-Di-tert-butyl-4-{[2-(7,8,9,10-tetrahydro-6H-cyclohepta[b]quinolin-11-ylamino)-ethylimino]-methyl}-phenol]: the IC50 in experiment [1] is 10.4 ± 0.7 µM. In experiment [2], the “Radical Scavenging Capacity in Luminol Chemiluminescence Assay, Luminescence Inhibition, %” value was 95.0 ± 0.4%.
